Laboratory results as given in ChEMBL document CHEMBL3627608, “Crystal structures of human RIP2 kinase catalytic domain complexed with ATP-competitive inhibitors: Foundations for understanding inhibitor selectivity” (Bioorg Med Chem, 2015).

What was measured:
[1] = biological target: Protein kinase C gamma type (Homo sapiens) (UniProt P05129); experiment: Inhibition of PKCgamma (unknown origin) at 10 uM after 120 mins P33 radiolabeled kinase activity assay
[2] = biological target: T1, Protein kinase C zeta type (Homo sapiens) (UniProt Q05513); experiment: Inhibition of PKCzeta (unknown origin) at 10 uM after 120 mins P33 radiolabeled kinase activity assay
T1 sequence (whole entry): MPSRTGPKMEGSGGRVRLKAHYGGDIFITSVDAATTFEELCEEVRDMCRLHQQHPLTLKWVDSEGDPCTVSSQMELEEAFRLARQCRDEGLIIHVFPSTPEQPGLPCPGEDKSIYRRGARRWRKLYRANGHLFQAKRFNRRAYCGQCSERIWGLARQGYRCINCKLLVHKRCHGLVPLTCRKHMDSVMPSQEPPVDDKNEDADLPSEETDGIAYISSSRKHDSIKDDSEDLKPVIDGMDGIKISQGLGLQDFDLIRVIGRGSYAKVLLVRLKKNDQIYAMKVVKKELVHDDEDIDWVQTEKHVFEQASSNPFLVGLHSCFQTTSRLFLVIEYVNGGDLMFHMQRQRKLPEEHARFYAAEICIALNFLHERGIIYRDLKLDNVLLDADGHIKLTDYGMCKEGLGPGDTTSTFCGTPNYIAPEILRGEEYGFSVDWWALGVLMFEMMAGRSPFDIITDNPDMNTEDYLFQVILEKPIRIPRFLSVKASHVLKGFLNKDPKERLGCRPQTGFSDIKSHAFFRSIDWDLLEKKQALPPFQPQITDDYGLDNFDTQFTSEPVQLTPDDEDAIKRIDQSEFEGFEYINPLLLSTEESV

[3] = biological target: T2, Serine/threonine-protein kinase Nek1 (Homo sapiens) (UniProt Q96PY6); experiment: Inhibition of NEK1 (unknown origin) at 10 uM after 120 mins P33 radiolabeled kinase activity assay
T2 sequence (whole entry): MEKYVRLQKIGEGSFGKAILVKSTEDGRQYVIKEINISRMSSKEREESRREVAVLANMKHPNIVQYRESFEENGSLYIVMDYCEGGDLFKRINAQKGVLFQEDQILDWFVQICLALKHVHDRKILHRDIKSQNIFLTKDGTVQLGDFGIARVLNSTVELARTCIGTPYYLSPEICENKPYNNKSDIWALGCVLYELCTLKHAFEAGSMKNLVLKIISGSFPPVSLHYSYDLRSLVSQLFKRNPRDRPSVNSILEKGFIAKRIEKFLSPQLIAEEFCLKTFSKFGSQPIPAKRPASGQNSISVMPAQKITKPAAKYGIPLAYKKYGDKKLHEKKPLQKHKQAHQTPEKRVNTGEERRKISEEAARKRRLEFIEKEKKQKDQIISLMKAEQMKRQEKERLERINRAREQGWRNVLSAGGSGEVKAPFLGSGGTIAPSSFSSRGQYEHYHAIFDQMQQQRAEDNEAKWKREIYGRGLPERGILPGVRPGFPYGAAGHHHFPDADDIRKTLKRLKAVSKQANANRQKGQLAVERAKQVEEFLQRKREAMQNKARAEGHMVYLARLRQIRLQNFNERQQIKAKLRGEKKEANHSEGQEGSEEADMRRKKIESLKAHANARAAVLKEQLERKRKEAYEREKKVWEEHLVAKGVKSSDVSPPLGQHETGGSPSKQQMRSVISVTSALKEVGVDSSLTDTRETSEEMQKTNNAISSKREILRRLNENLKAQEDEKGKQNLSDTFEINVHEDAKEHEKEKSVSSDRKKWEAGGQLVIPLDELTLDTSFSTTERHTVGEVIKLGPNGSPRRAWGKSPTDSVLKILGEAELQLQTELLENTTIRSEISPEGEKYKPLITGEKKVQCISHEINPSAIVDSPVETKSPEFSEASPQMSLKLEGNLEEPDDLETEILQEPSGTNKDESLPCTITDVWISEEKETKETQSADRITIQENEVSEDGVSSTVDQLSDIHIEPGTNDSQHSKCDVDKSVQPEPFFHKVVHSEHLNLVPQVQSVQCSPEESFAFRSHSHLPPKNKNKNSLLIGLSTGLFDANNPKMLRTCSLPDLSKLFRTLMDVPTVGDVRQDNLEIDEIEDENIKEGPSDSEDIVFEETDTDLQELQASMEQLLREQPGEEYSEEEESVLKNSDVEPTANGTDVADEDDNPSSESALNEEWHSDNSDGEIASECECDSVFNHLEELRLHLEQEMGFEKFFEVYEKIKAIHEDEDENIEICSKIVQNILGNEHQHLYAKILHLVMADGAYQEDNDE

[4] = biological target: T3, Kinase suppressor of Ras 2 (Homo sapiens) (UniProt Q6VAB6); experiment: Inhibition of KSR2 (unknown origin) at 10 uM after 120 mins P33 radiolabeled kinase activity assay
T3 sequence (whole entry): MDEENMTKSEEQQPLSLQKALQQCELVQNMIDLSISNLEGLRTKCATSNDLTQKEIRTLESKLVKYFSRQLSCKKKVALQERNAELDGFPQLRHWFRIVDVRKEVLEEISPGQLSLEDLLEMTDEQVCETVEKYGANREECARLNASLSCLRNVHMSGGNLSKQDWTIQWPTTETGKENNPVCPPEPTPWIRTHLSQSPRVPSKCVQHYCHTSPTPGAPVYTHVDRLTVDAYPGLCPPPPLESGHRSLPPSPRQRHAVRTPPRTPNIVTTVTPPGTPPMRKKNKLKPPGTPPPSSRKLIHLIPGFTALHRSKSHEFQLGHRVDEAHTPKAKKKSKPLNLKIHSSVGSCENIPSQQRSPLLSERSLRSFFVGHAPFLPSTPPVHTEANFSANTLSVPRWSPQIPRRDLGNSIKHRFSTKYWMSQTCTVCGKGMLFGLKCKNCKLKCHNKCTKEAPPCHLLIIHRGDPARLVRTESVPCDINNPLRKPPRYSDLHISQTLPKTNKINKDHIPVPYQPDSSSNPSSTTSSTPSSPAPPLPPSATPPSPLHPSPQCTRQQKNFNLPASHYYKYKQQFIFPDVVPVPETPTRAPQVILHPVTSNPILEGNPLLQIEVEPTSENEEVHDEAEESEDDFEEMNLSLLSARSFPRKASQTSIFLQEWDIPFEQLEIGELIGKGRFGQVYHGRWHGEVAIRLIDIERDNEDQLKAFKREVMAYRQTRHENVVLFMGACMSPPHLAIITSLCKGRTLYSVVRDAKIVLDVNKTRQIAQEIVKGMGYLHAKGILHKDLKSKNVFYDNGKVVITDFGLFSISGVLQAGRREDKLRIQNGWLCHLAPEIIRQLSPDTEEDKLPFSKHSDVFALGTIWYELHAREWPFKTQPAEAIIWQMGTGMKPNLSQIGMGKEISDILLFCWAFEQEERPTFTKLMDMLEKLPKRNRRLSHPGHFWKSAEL

| inhibition [1] [%] | inhibition [2] [%] | inhibition [3] [%] | inhibition [4] [%] | SMILES |
| --- | --- | --- | --- | --- |
| 10.9 | 7.55 | 15.4 | 1.08 | CS(=O)(=O)c1cccc(Nc2nccc(-c3sc(N4CCOCC4)nc3-c3cccc(NS(=O)(=O)c4c(F)cccc4F)c3)n2)c1 |
| 4.86 | 3.68 | 2.5 | 3.38 | COCCNC(=O)c1ccc2c(c1)nc(-c1cnc(-c3ccc(Cl)cc3)[nH]1)n2CCOC |
| 2.25 | 5.44 | 12.5 | 3.41 | CC(C)(C)c1cc(NC(=O)Nc2ccc(Oc3ccncc3)cc2)no1 |
